The target in assay [1] is T1, interaction between IL-17A and soluble IL-17 Receptor A (IL-17RA) (Homo sapiens, UniProt Q16552).
T1 construct: made in house; host or cells: IL-17A-Fc: CHO SXE cells; IL-17RA: Expi HEK293 cells
T1 sequence (Q16552 24-155): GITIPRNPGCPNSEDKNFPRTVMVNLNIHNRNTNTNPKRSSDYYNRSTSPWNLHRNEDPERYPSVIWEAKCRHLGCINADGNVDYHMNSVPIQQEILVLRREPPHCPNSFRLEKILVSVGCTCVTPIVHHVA
In words: IL-17 FRET assay. The conditions noted are these: IL-17A binding to IL-17RA. As to the method: The purpose of this assay is to test the ability of compounds to disrupt the interaction between IL-17A and soluble IL-17 Receptor A (IL-17RA). The ability of a compound to inhibit IL-17A binding to IL-17RA is measured in this assay.
An IL-17AA-TEV-Human Fc construct was expressed in a CHO SXE cell system and purified by protein A chromatography and size exclusion. The protein was labelled with an amine reactive AlexaFluor 647 dye (Thermo Fisher #A20006), as per manufacturer's instruction.
Soluble IL-17RA (33-317)-HKH-TEV-Fc was expressed in an Expi HEK293 cell system and purified by protein A chromatography and size exclusion. The Fc tag was cleaved by TEV, producing IL-17RA (33-317)-HKH, and the protein was labelled with amine reactive terbium (Thermo Fisher #PV3581).
In assay buffer [Dulbecco's PBS (Sigma #14190-094), 0.05% P20 (Thermo Scientific #28320), 1 mg/mL BSA (Sigma #A2153-500G)] the following solutions were prepared:
• IL-17A-Fc-AF647 at 5 nM • IL-17RA-HKH-Tb at 5 nM
Compounds were serially diluted in DMSO before receiving an aqueous dilution into a 384 well dilution plate (Greiner #781281), to give a 25% DMSO solution.
IL-17A (10 μL) was added to a black low volume assay plate (Costar #4511) and diluted compound (5 μL) was transferred from the aqueous dilution plate. The cytokine and compound were allowed to incubate for 1 h, then IL-17RA (10 μL) was added. The plates were wrapped in foil and incubated at room temperature for 18-20 h with gentle shaking (<400 rpm) before being read on a Perkin Elmer Envision plate reader (Excitation: 330 nm; Emission 615/645 nm).
The final assay concentrations were IL-17A-AF647 2 nM and IL-17RA-Tb 2 nM, 5% DMSO.

The subject of assay [2] is IL-17 induced IL-6 release from human dermal fibroblasts. The experiment in a line: Inhibition of IL-17A induced IL-6 release from dermal fibroblast cell line (HDF cell line assay). The format is cell-based. An outline of the steps:
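Human dermal fibroblasts stimulated with IL-17A; compounds pre-incubated with cytokine for 1 h or 5 h at 37° C., then added to cells for 18-20 h at 37° C./5% CO2 ([…]). Released IL-6 quantified by HTRF with Eu-Cryptate and d2/XL665-labelled antibodies.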

This note sets out measurements from patent publication US12662475B2, “Difluorocyclohexyl derivatives as IL-17 modulators” (UCB BIOPHARMA SRL, priority 2020, dated 2026).

As usually defined, the pIC50 is the IC50 on a negative log10 scale, so that one unit is a factor of ten.

Each structure is given as a SMILES string. pIC50: −log10 of the molar value.

Regarding `Cn1nccc1C(=O)N[C@H](c1nc2c(F)c(C(CC(F)F)C(=O)N3CC(F)(F)C3)ccc2[nH]1)C1CCC(F)(F)CC1` (stereo partly drawn) [Example 6, N—[(S)-{5-[1-(3,3-Difluoroazetidine-1-carbonyl)-3,3-difluoropropyl]-4-fluoro-1H-benzimidazol-2-yl}(4,4-difluorocyclohexyl)methyl]-2-methylpyrazole-3-carboxamide], the negative-log IC50 (pIC50) in assay [1] is 7.10; in assay [2] (Incubation Time 5 h), 7.60.

`Cc1nonc1C(=O)N[C@H](c1nc2c(F)c(C(CC(F)(F)F)C(=O)N3CC(F)(F)C3)ccc2[nH]1)C1CCC(F)(F)CC1` (stereo partly drawn) [Example 7, N—[(S)-{5-[1-(3,3-Difluoroazetidine-1-carbonyl)-3,3,3-trifluoropropyl]-4-fluoro-1H-benzimidazol-2-yl}(4,4-difluorocyclohexyl)methyl]-4-methyl-1,2,5-oxadiazole-3-carboxamide]: the pIC50 in assay [1] and in assay [2] (Incubation Time 5 h) was 7.80 in each case.

Take `Cn1nccc1C(=O)N[C@H](c1nc2c(F)c(C(CC(F)(F)F)C(=O)N3CC(F)(F)C3)ccc2[nH]1)C1CCC(F)(F)CC1` (stereo partly drawn) [Example 8, N—[(S)-{5-[1-(3,3-Difluoroazetidine-1-carbonyl)-3,3,3-trifluoropropyl]-4-fluoro-1H-benzimidazol-2-yl}(4,4-difluorocyclohexyl)methyl]-2-methylpyrazole-3-carboxamide]: the negative logarithm of the IC50 (pIC50) was 7.00 in assay [1] and 7.60 in assay [2] (Incubation Time 5 h).

In the case of `Cc1nonc1C(=O)N[C@H](c1nc2c(F)c(C3(C(=O)N4CC(F)(F)C4)CCNCC3)ccc2[nH]1)C1CCC(F)(F)CC1` [Example 16, N—[(S)-{5-[4-(3,3-Difluoroazetidine-1-carbonyl)piperidin-4-yl]-4-fluoro-1H-benzimidazol-2-yl}(4,4-difluorocyclohexyl)methyl]-4-methyl-1,2,5-oxadiazole-3-carboxamide], the negative-log IC50 (pIC50) in assay [1] is 6.90; in assay [2] (Incubation Time 5 h), 7.10.

For `COC(=O)N1CCC(C(=O)N2CC(F)(F)C2)(c2ccc3[nH]c([C@@H](NC(=O)c4nonc4C)C4CCC(F)(F)CC4)nc3c2F)CC1` [Example 17, Methyl 4-(3,3-difluoroazetidine-1-carbonyl)-4-(2-{(S)-(4,4-difluorocyclohexyl)[(4-methyl-1,2,5-oxadiazole-3-carbonyl)amino]methyl}-4-fluoro-1H-benzimidazol-5-yl)-piperidine-1-carboxylate], the negative-log IC50 (pIC50) in assay [1] is 7.30; in assay [2] (Incubation Time 5 h) it was 7.90.

`[2H]C([2H])([2H])n1nccc1C(=O)N[C@H](c1nc2c(F)c(C3(C(=O)N4CC(F)(F)C4)CC(F)(F)C3)ccc2[nH]1)C1CCC(F)(F)CC1` [Example 18, N—[(S)-{5-[1-(3,3-Difluoroazetidine-1-carbonyl)-3,3-difluorocyclobutyl]-4-fluoro-1H-benzimidazol-2-yl}(4,4-difluorocyclohexyl)methyl]-2-(trideuteriomethyl)pyrazole-3-carboxamide]: the negative logarithm of the IC50 (pIC50) in assay [1] is 6.80; in assay [2] (Incubation Time 1 h), 7.10.

`Cc1nonc1C(=O)N[C@H](c1nc2c(F)c(C3(C(=O)N4CC(F)(F)C(F)(F)C4)CCOCC3)ccc2[nH]1)C1CCC(F)(F)CC1` [Example 19, N—[(S)-(4,4-Difluorocyclohexyl){4-fluoro-5-[4-(3,3,4,4-tetrafluoropyrrolidine-1-carbonyl)tetrahydropyran-4-yl]-1H-benzimidazol-2-yl}methyl]-4-methyl-1,2,5-oxadiazole-3-carboxamide]: the pIC50 in assay [1] was 7.90; in assay [2] (Incubation Time 5 h), 8.40.

As for `Cc1nonc1C(=O)N[C@H](c1nc2c(F)c(C3(C(=O)N4CC(F)(F)C4)CCC(F)(F)CC3)ccc2[nH]1)C1CCC(F)(F)CC1` [Example 23, N—[(S)-{5-[1-(3,3-Difluoroazetidine-1-carbonyl)-4,4-difluorocyclohexyl]-4-fluoro-1H-benzimidazol-2-yl}(4,4-difluorocyclohexyl)methyl]-4-methyl-1,2,5-oxadiazole-3-carboxamide], the pIC50 in assay [1] was 7.70; in assay [2] (Incubation Time 5 h), 8.00.

Regarding `Cc1nonc1C(=O)N[C@H](c1nc2nc(C3(C(=O)NCC4CC4(F)F)CCOCC3)ccc2[nH]1)C1CCC(F)(F)CC1` (stereo partly drawn) [Example 24, N—[(S)-(4,4-Difluorocyclohexyl)(5-{4-[(2,2-difluorocyclopropyl)methylcarbamoyl]-tetrahydropyran-4-yl}-1H-imidazo[4,5-b]pyridin-2-yl)methyl]-4-methyl-1,2,5-oxadiazole-3-carboxamide], the negative logarithm of the IC50 (pIC50) is 7.60 in assay [1] and 8.20 in assay [2] (Incubation Time 5 h).
